In patent CN109134447A, “一种富马酸卢帕替芬的杂质b及其制备方法和检测方法” (FUJIAN MINDONG REJUVENATION PHARMACEUTICAL Co Ltd, priority 2018, dated 2019):

Test: Stability test of the reference solution of the compound of formula I (HPLC peak area)
Format: physicochemical
Details: reference solution in 50% aqueous methanol (25 mg in 25 ml); injected at 0, 2, 4, 8, 12, 24 h after preparation, 20 μl each; within 24 hours

stability (peak area by HPLC): 稳定
SMILES: Cc1cncc(C[N+]2(C)CCC(=C3c4ccccc4CC(=O)c4sccc43)CC2)c1.[Br-] (stereo not shown) [式Ⅰ所示化合物]
